The record followed here is ChEMBL document CHEMBL3044554, “Comparison of Phytotoxicities between 4-Fluorinated and Non-fluorinated 2-Chloro-5-(3, 4, 5, 6-tetrahydrophthalimido)benzoates” (J Pestic Sci, 1999).

Details in all cases: read-out: pI50 (converted)
For assay [1], the system named is Scenedesmus acutus. The assay can be described thus: Growth inhibition of Scenedesmus acutus assessed as changes in packed cell volume. The class given is functional, organism-based.
Assay [2] deals with Scenedesmus acutus. In words: Phytotoxicity against Scenedesmus acutus assessed as reduction in chlorophyll content by spectroscopy. It is filed as functional, organism-based.
Assay [3] concerns Scenedesmus acutus. In words: Peroxidizing phytotoxicity against Scenedesmus acutus assessed as ethane production after 20 hr. It is filed as functional, organism-based.
Assay [4] has as its target T1, Protoporphyrinogen IX oxidase (Zea mays, UniProt Q9FYV8).
T1 sequence (Q9FYV8 whole entry): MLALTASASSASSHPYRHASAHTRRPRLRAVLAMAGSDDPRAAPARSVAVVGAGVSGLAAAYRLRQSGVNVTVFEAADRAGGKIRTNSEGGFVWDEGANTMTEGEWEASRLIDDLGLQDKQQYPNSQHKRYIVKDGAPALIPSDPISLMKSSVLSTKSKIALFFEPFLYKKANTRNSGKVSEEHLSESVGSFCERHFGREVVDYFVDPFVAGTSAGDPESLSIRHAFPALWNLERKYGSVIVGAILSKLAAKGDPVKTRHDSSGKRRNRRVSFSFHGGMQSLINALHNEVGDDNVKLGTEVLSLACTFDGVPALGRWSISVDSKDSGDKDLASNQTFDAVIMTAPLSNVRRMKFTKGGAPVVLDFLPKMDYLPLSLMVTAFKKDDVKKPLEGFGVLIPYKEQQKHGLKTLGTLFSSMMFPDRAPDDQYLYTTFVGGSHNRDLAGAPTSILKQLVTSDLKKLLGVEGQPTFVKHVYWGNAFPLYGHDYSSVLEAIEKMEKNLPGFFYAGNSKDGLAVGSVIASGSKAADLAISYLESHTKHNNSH
The assay can be described thus: Inhibition of protoporphyrinogen IX oxidase in Zea mays cv. Anjou (maize) seedlings homogenates assessed as protoporphyrinogen IX formation by spectrophotometry.

Consider `C#CCOc1cc(N2C(=O)C3=C(CCCC3)C2=O)ccc1Cl`, for which the IC50 in assay [1] was 100 nM; in assay [2], 79.4 nM; in assay [3] it was 537 nM.

Take `C#CCOc1cc(N2C(=O)C3=C(CCCC3)C2=O)c(F)cc1Cl`: the IC50 in assay [1] is 15.8 nM; in assay [2], 15.8 nM; in assay [4], 1.82 nM; in assay [3], 141 nM.

As for `O=C1C2=C(CCCC2)C(=O)N1c1ccc(Cl)cc1F`, the IC50 in assay [1] was 37.2 nM; in assay [2] it was 24.5 nM; in assay [4] it was 3.72 nM; in assay [3], 240 nM.

With `O=C(O)c1cc(N2C(=O)C3=C(CCCC3)C2=O)c(F)cc1Cl`, the IC50 in assay [1] was 1000 nM; in assay [2], 759 nM; in assay [4], 380 nM; in assay [3], 3160 nM.

On to `COC(=O)c1cc(N2C(=O)C3=C(CCCC3)C2=O)c(F)cc1Cl`, for which the IC50 is 67.6 nM in assay [1], 110 nM in assay [2], 11.2 nM in assay [4] and 170 nM in assay [3].

As to `CCOC(=O)c1cc(N2C(=O)C3=C(CCCC3)C2=O)c(F)cc1Cl`, the IC50 in assay [1] was 57.5 nM; in assay [2], 100 nM; in assay [4], 4.17 nM; in assay [3], 87.1 nM.

For `CCCOC(=O)c1cc(N2C(=O)C3=C(CCCC3)C2=O)c(F)cc1Cl`, the IC50 in assay [1] is 33.1 nM; in assay [2], 89.1 nM; in assay [4], 3.89 nM; in assay [3], 66.1 nM.

Consider `CC(C)OC(=O)c1cc(N2C(=O)C3=C(CCCC3)C2=O)c(F)cc1Cl`, for which the IC50 in assay [1] is 13.8 nM; in assay [2], 57.5 nM; in assay [4], 1.38 nM; in assay [3], 89.1 nM.

Consider `CCCCOC(=O)c1cc(N2C(=O)C3=C(CCCC3)C2=O)c(F)cc1Cl`, for which the IC50 was 126 nM in assay [1], 67.6 nM in assay [2], 8.91 nM in assay [4] and 141 nM in assay [3].

For the molecule `CC(C)COC(=O)c1cc(N2C(=O)C3=C(CCCC3)C2=O)c(F)cc1Cl`, the IC50 in assay [1] was 100 nM; in assay [2] it was 33.1 nM; in assay [4], 4.9 nM; in assay [3] it was 407 nM.

As to `CCC(C)OC(=O)c1cc(N2C(=O)C3=C(CCCC3)C2=O)c(F)cc1Cl` (configuration not stated), the IC50 in assay [1] is 60.3 nM; in assay [2], 24.5 nM; in assay [4], 2.63 nM; in assay [3], 74.1 nM.

For the molecule `O=C(O)c1cc(N2C(=O)C3=C(CCCC3)C2=O)ccc1Cl`, the IC50 is more than 100000 nM in assay [1], more than 100000 nM in assay [2], 1860 nM in assay [4] and more than 100000 nM in assay [3].

With `COC(=O)c1cc(N2C(=O)C3=C(CCCC3)C2=O)ccc1Cl`, the IC50 in assay [1] is 1780 nM; in assay [2], 2000 nM; in assay [4] it was 8.91 nM; in assay [3] it was 1620 nM.

As to `CCOC(=O)c1cc(N2C(=O)C3=C(CCCC3)C2=O)ccc1Cl`, the IC50 was 1910 nM in assay [1], 1380 nM in assay [2], 3.72 nM in assay [4] and 2140 nM in assay [3].

In the case of `CCCOC(=O)c1cc(N2C(=O)C3=C(CCCC3)C2=O)ccc1Cl`, the IC50 in assay [1] was 1120 nM; in assay [2], 1860 nM; in assay [4], 2.19 nM; in assay [3], 661 nM.

For `CC(C)OC(=O)c1cc(N2C(=O)C3=C(CCCC3)C2=O)ccc1Cl`, the IC50 was 1230 nM in assay [1], 1000 nM in assay [2] and 182 nM in assay [3].

With `CCCCOC(=O)c1cc(N2C(=O)C3=C(CCCC3)C2=O)ccc1Cl`, the IC50 in assay [1] was 6310 nM; in assay [2], 3550 nM; in assay [4], 9.12 nM; in assay [3] it was 7760 nM.

As to `CC(C)COC(=O)c1cc(N2C(=O)C3=C(CCCC3)C2=O)ccc1Cl`, the IC50 in assay [1] is 977 nM; in assay [2], 759 nM; in assay [4], 4.79 nM; in assay [3], 15500 nM.

Take `CCC(C)OC(=O)c1cc(N2C(=O)C3=C(CCCC3)C2=O)ccc1Cl` (configuration not stated): the IC50 was 1100 nM in assay [1], 794 nM in assay [2], 2.51 nM in assay [4] and 9770 nM in assay [3].

With `CC(C)(C)OC(=O)c1cc(N2C(=O)C3=C(CCCC3)C2=O)ccc1Cl`, the IC50 in assay [1] was 81300 nM; in assay [2] it was 12900 nM; in assay [4], 28.2 nM; in assay [3], more than 100000 nM.

For the molecule `CCCCCOC(=O)c1cc(N2C(=O)C3=C(CCCC3)C2=O)ccc1Cl`, the IC50 is 4470 nM in assay [1], 9330 nM in assay [2], 7.59 nM in assay [4] and 5370 nM in assay [3].

Consider `CCCCCCCCOC(=O)c1cc(N2C(=O)C3=C(CCCC3)C2=O)ccc1Cl`, for which the IC50 in assay [1] was more than 100000 nM; in assay [2], more than 100000 nM; in assay [4], 25.1 nM; in assay [3], more than 100000 nM.

In the case of `COC(=O)c1cc(Oc2ccc(C(F)(F)F)cc2Cl)ccc1[N+](=O)[O-]` [ACIFLUORFEN-METHYL], the IC50 was 70.8 nM in assay [1], 61.7 nM in assay [2], 2.19 nM in assay [4] and 23.4 nM in assay [3].

On to `O=C(O)c1cc(Oc2ccc(C(F)(F)F)cc2Cl)ccc1[N+](=O)[O-]` [ACIFLUORFEN], for which the IC50 in assay [1] is 5750 nM; in assay [2], 1860 nM; in assay [4], 200 nM; in assay [3] it was 1020 nM.

In the case of `O=C1C2=C(CCCC2)C(=O)N1c1ccc(Cl)cc1` [CHLOROPHTHALIUM], the values for the IC50 in assay [1], in assay [2] and in assay [3] were 100 nM, 79.4 nM and 912 nM, respectively.
